IC50 data for 29 compounds are collected here from ChEMBL document CHEMBL1275342 (J Med Chem, 2010).

The target of assay [1] is T1, Serine/threonine-protein kinase Chk1 (Homo sapiens, UniProt O14757).
T1 sequence (O14757 whole entry): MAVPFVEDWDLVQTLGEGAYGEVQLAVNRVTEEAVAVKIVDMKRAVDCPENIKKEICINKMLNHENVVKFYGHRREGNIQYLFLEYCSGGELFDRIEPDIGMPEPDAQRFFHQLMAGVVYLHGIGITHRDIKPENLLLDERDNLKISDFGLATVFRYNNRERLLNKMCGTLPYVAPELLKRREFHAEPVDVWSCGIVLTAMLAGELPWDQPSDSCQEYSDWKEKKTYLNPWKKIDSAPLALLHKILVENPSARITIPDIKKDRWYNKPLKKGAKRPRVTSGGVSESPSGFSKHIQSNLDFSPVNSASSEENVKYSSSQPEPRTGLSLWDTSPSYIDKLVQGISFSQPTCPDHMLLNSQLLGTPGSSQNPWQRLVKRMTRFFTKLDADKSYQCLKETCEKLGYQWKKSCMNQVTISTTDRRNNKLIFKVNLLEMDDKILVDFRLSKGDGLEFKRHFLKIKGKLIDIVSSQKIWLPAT
The assay is described as follows: Inhibition of CHK1.

In assay [2] the target is T2, Serine/threonine-protein kinase Nek1 (Homo sapiens, UniProt Q96PY6).
T2 sequence (Q96PY6 whole entry): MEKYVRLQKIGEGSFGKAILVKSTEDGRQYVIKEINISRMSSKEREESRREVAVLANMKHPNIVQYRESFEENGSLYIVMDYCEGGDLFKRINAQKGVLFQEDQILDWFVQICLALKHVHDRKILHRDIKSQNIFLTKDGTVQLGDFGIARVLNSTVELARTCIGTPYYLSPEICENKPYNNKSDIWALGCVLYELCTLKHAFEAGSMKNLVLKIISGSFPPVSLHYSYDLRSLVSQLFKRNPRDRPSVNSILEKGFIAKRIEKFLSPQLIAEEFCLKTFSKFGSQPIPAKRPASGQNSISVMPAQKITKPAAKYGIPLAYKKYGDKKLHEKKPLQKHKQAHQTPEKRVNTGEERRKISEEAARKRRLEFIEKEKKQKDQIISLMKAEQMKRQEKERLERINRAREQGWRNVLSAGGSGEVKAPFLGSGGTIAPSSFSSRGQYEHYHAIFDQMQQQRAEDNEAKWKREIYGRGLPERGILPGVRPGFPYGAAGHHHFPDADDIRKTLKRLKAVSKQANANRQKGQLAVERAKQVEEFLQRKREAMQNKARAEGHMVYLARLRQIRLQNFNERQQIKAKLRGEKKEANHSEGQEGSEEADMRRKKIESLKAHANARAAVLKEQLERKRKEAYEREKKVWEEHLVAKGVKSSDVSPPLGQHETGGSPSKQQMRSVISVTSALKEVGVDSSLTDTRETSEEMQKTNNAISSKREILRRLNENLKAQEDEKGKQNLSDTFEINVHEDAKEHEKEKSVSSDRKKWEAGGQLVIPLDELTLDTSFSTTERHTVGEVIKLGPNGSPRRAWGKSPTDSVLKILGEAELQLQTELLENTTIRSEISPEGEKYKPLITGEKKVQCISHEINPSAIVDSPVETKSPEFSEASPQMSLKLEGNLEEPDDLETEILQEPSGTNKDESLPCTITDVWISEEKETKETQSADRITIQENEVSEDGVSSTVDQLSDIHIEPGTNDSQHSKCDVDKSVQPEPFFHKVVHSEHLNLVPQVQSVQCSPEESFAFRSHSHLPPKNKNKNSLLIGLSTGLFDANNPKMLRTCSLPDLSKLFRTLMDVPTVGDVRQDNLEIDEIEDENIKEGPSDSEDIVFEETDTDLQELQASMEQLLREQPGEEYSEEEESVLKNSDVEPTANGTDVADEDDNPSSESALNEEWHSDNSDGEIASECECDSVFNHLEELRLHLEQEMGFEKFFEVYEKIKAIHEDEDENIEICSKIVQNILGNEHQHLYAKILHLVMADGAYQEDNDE
The assay is described as follows: Inhibition of NEK1 after 1 hr at room temperature by caliper method.

Assay [3] addresses Serine/threonine-protein kinase PLK1 (Homo sapiens, UniProt P53350). The assay is described as follows: Inhibition of PLK1 after 75 mins at room temperature by caliper method.
For assay [4], the target named is T3, Serine/threonine-protein kinase Nek2 (Homo sapiens, UniProt P51955).
T3 sequence (P51955 whole entry): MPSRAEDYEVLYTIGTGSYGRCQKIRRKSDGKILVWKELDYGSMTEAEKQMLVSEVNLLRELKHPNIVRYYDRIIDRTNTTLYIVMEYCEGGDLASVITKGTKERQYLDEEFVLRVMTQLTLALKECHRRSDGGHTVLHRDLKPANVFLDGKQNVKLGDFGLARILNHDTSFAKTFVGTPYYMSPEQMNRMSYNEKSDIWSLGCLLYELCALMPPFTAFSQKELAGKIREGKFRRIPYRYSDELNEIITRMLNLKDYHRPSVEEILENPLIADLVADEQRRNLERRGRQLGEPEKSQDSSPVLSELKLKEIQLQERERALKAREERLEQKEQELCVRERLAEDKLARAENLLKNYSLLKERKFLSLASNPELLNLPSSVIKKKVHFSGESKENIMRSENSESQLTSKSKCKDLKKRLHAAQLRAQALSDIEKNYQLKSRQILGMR
Description: Inhibition of NEK2 autophosphorylation after 2 hrs by DELFIA assay

In assay [5] the target is T3, Serine/threonine-protein kinase Nek2. The source holds these as a separate data set.
Description: Inhibition of NEK2 assessed as inhibition of substrate phosphorylation
Assay [6] shares this target. This is another data set of the same source.
Description: Inhibition of NEK2 by microfluidic assay

By IC50 is commonly meant the concentration needed to halve the response being measured. The low end stands for inhibition by little substance, the high end for a need for much substance.

Sequence of Serine/threonine-protein kinase PLK1 (P53350 whole entry): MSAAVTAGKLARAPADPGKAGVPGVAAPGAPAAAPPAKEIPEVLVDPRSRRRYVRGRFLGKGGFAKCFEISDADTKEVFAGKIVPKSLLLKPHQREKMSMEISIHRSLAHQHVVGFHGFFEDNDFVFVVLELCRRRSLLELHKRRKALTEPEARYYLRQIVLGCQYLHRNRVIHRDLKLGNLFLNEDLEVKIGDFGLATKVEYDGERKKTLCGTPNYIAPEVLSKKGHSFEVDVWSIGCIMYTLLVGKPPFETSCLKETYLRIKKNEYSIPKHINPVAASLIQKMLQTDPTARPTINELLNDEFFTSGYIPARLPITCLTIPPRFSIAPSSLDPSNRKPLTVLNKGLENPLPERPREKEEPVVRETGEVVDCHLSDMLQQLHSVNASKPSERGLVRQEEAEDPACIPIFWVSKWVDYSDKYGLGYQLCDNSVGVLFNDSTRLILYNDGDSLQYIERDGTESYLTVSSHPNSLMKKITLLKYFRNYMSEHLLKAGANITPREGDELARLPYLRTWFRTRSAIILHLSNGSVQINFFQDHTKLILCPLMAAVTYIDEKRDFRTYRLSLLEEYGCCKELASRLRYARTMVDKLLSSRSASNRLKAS

`COc1cc(-c2cnc(N)c(N3CCC(C(=O)O)CC3)n2)cc(OC)c1OC`: the IC50 in assay [1] is > 100 µM; in assay [2], 2.6 µM; in assay [3], 22.6 µM. As to `COc1cc(-c2cnc(N)c(-c3ccc(C(=O)O)cc3)n2)cc(OC)c1OC`, the IC50 worked out at 0.71 µM in assay [4] and 1.6 µM in assay [5]. Compound `Nc1nccnc1N1CCC(C(=O)O)CC1` displayed an IC50 in assay [6] of 48.5 µM. `COc1cc(-c2cnc(N)c(N3CC[C@@H](C(=O)O)[C@@H](C)[C@H]3C)n2)cc(OC)c1OC`: the IC50 in assay [1] was > 100 µM; in assay [2], 0.17 µM; in assay [3] it was 19.4 µM. Turning to `Nc1ncc(-c2ccsc2)nc1N1CCC(C(=O)O)CC1`, in assay [6], half-maximal inhibition (IC50) was put at 7.2 µM. On the same count and under the same terms, the result for `Nc1ncc(-c2cccs2)nc1N1CCC(C(=O)O)CC1` reads 4.3 µM. With `CCc1ccsc1-c1cnc(N)c(N2CCC(C(=O)O)CC2)n1`, the IC50 in assay [1] was > 100 µM; in assay [4], 0.72 µM; in assay [2], 22.5 µM; in assay [3], 8.5 µM; in assay [6] it was 2.1 µM; in assay [5] it was 1.9 µM. In assay [6], `Nc1ncc(-c2sccc2C2CC2)nc1N1CCC(C(=O)O)CC1` had an IC50 of 1.6 µM.

As for `Nc1ncc(-c2sccc2C2CCCC2)nc1N1CCC(C(=O)O)CC1`, the IC50 in assay [6] was found to be 3.4 µM. Same read-out and setting: the result for `COc1ccc(-c2cnc(N)c(N3CCC(C(=O)O)CC3)n2)cc1OC` reads 1.9 µM. For `COc1cc(OC)cc(-c2cnc(N)c(N3CCC(C(=O)O)CC3)n2)c1`, the IC50 in assay [6] turned out to be 1.9 µM. This lies in the single-digit micromolar range. On the same count and under the same terms, the result for `COc1ccc(-c2cnc(N)c(N3CCC(C(=O)O)CC3)n2)cc1` reads 19.8 µM; that for `Nc1ncc(-c2ccccc2)nc1N1CCC(C(=O)O)CC1`, 7.8 µM; that for `COc1cc(-c2cnc(N)c(N3CCCCC3)n2)cc(OC)c1OC`, > 50 µM. The compound `COC(=O)C1CCN(c2nc(-c3cc(OC)c(OC)c(OC)c3)cnc2N)CC1` came in with an IC50 in assay [6] of 18.3 µM.

With `COc1cc(-c2cnc(N)c(N3CCC(C(N)=O)CC3)n2)cc(OC)c1OC`, in assay [6], the midpoint of inhibition, the IC50, lay at 5.7 µM.

For the compound `COc1cc(-c2cnc(N)c(-c3ccc(C(=O)O)cc3C)n2)cc(OC)c1OC`, in assay [6], the IC50 was > 50 µM. For the compound `CCc1cc(-c2nc(-c3cc(OC)c(OC)c(OC)c3)cnc2N)ccc1C(=O)O`, the midpoint of inhibition in assay [6], the IC50, lay at 26.2 µM.

`COc1cc(-c2cnc(N)c(N3CC[C@@H](C(=O)O)[C@@H](C)C3)n2)cc(OC)c1OC` came in with an IC50 in assay [6] of 0.39 µM. Compared with the last compound, the IC50 is about 67-fold lower. `COc1cc(-c2cnc(N)c(N3CC[C@H](C(=O)O)[C@H](C)C3)n2)cc(OC)c1OC` had an IC50 in assay [6] of 10.8 µM. `CCC[C@@H]1C[C@H](C(=O)O)CCN1c1nc(-c2cc(OC)c(OC)c(OC)c2)cnc1N` (racemic) showed an IC50 in assay [6] of 5.4 µM. The same measure, in the same setting: as for `COc1cc(-c2cnc(N)c(N3CC[C@@H](C(=O)O)[C@@H](C)C3)n2)cc(OC)c1OC` (racemic), the figure is 0.72 µM. For `COc1cc(-c2cnc(N)c(N3CC[C@H](C(=O)O)[C@@H](C)C3)n2)cc(OC)c1OC` (racemic), it took 2.7 µM to reach half-maximal inhibition in assay [6] (IC50). On to `CC[C@H]1CN(c2nc(-c3cc(OC)c(OC)c(OC)c3)cnc2N)CC[C@@H]1C(=O)O` (racemic), for which the IC50 in assay [6] was 11.3 µM.

`CCC[C@H]1CN(c2nc(-c3cc(OC)c(OC)c(OC)c3)cnc2N)CC[C@H]1C(=O)O` (racemic) came in with an IC50 in assay [6] of 11.2 µM. Same read-out and setting: as for `COc1cc(-c2cnc(N)c(N3CC[C@@H](C(=O)O)[C@@H](C4CC4)C3)n2)cc(OC)c1OC` (racemic), the figure is 38.3 µM; as for `COc1cc(-c2cnc(N)c(N3CC[C@@H](C(=O)O)C[C@H]3C)n2)cc(OC)c1OC` (racemic), 1.2 µM. Consider `CC[C@@H]1C[C@H](C(=O)O)CCN1c1nc(-c2cc(OC)c(OC)c(OC)c2)cnc1N` (racemic), for which the IC50 in assay [6] was determined as 1.4 µM. This IC50 and that of the compound before are within 1.5-fold of each other. In turn, `COc1cc(-c2cnc(N)c(N3CC[C@@H](C(=O)O)C[C@H]3C(C)C)n2)cc(OC)c1OC` (racemic) registered a concentration for half-maximal inhibition (IC50) in assay [6] of 5.9 µM.
